This is an account of results in patent US9505740B2, “Cyclic amine derivative and pharmaceutical use thereof” (Toray Industries, Inc., priority 2013, dated 2016).

Structures are written as SMILES. Structures can show the parent of a compound that is named as a salt.

The experiment relates to mouse partial sciatic nerve ligation model. Nature of the experiment: Mouse partial sciatic nerve ligation model (Seltzer model), von Frey test. The format is in vivo. Conditions: Day 7, vs physiological saline group.
The mark [1] stands for this setting: intravenous administration (tail vein), Examples 2, 4: 0.1 to 10 mg/kg, 13: 0.01 to 1 mg/kg, 18, 22: 0.1 and 1 mg/kg, 25, 27, 29, 31, 33, 66, 68, 70: 0.1 mg/kg, pregabalin 1 or 3 mg/kg.
[2] abbreviates: intraventricular administration, 10 μg/site, 15, 30 and 60 minutes after administration, p<0.05.

Consider `CNC1CCN(C(=O)CCc2nccn2C)CC1` [Example 2, 3-(1-methyl-1H-imidazol-2-yl)-1-(4-(methylamino)piperidin-1-yl)propan-1-one hydrochloride], for which the “analgesic action, total score in the von Frey test” value (from here on “analgesic action, total score”) under setting [1] is recorded as “statistically significant analgesic action” and the “analgesic action, total score” value under setting [2] is reported as “statistically significant analgesic action”.
Take `CN(C)[C@@H]1CCCN(C(=O)CCc2nccn2CC(=O)O)C1.Cl` [Example 31, 2-(2-(3-((R)-3-dimethylaminopiperidin-1-yl)-3-oxopropyl)-1H-imidazol-1-yl)acetic acid hydrochloride]: the “analgesic action, total score” value under setting [1] is recorded as “statistically significant analgesic action”.
`CC(=O)N(C)C1CCN(C(=O)CCc2nccn2C)CC1.Cl` [Example 4, N-methyl-N-(1-(3-(1-methyl-1H-imidazol-2-yl)propanoyl)piperidin-4-yl)acetamide hydrochloride]: the “analgesic action, total score” value is, setting by setting: under setting [1], “statistically significant analgesic action”; under setting [2], “statistically significant analgesic action”.
As for `CN(C)C1CCN(C(=O)CCc2nccn2CCN)CC1` [Example 15, 3-(1-(2-aminoethyl)-1H-imidazol-2-yl)-1-(4-(dimethylamino)piperidin-1-yl)propan-1-one hydrochloride], the “analgesic action, total score” value under setting [2] is “statistically significant analgesic action”.
